According to patent US10023539B2, “Aryl-cyanoguanidine compounds” (Bayer Pharma Aktiengesellschaft, priority 2014, dated 2018):

biological target: SMYD2 (Homo sapiens (Human), UniProt Q9NRG4); experiment: Scintillation Proximity Assay (SPA) for detection of SMYD2 enzymatic inhibition; type: biochemical; details: comparison example versus WO 2006/072350; read-out: IC50 [mol/l] (SPA Assay)
Procedure: 1.1 Scintillation Proximity Assay (SPA) for Detection of SMYD2 Enzymatic Inhibition
The SMYD2 full length enzyme was produced in-house by expression (with an N-terminal 6×His tag) in E. coli and purification by affinity chromatography on a Ni-NTA Sepharose column followed by a size exclusion chromatography step on a Superdex 200 16/60 column (GE Healthcare).
To this end, 100-fold concentrated compound solutions (in DMSO) were previously prepared by serial dilution (1:3.4) of 2 mM stocks in a clear low volume 384-well source microtiter plate (Greiner Bio-One), from which 50 nl of compound solutions were transferred into a white low volume test microtiter plate from the same supplier. […] The samples were then incubated for 15 min at 22° C. to allow pre-equilibration of the putative enzyme-inhibitor complexes before the start of the methylation reaction, which was initiated by the addition of 2.5 μl 2-fold concentrated solution (in assay buffer) of titrated S-Adenosyl-L-Methionine (3H-SAM, Perkin Elmer, final concentration: 60 nM) and p53 Peptide substrate (final concentration: 1.0 μM). The resulting mixture (5 μl final volume) was shortly centrifuged (2 min., 1500 rpm) and incubated at 22° C. during 30 min. Thereupon the reaction was stopped by adding 3 μl of Streptavidin PS SPA imaging beads (Perkin Elmer, final concentration of 3.12 μg/μl) and “cold” SAM (AK Scientific, 25 μM final concentration) for non-specific binding reduction. Plates containing the stopped reaction were sealed with transparent adhesive foil (Perkin Elmer), centrifuged (2 min., 1500 rpm), and further incubated for—at least—1 h at RT (or overnight at 4° C.) in order to allow the SPA signals to develop. […] IC50 values were calculated by fitting the normalized inhibition data to a 4-parameter logistic equation using the “Screener” analysis software from Genedata.

Sequence of SMYD2 (Q9NRG4 whole entry): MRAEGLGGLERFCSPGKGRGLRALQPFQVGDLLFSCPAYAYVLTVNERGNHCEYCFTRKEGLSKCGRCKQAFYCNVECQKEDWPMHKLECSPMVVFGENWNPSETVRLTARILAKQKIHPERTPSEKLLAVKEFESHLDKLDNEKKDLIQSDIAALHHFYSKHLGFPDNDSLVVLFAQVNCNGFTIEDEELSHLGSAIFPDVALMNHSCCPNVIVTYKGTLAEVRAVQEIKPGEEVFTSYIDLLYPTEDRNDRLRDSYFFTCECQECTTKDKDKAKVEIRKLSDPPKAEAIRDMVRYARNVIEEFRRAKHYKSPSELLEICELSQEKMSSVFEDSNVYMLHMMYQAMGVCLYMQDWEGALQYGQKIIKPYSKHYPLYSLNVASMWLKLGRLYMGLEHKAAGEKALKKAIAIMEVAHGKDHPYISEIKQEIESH

Row | IC50 [µM] | SMILES
1 | 0.548 | CCN(C(=O)CO)C1CN(/C(=N\C#N)Nc2cccc(OC(F)F)c2)N=C1c1ccc(Cl)cc1 (stereo not drawn) [WO 2006/072350 Example 67 more active isomer, reference compound]

same assay, conditions: methylation of biotinylated p53 Peptide, 3H-SAM, full length SMYD2; read-out: IC50 [mol/l] (SPA Assay)

Row | IC50 [µM] | SMILES
2 | 2.98 | CCN(C(=O)CO)C1CN(/C(=N\C#N)Nc2ccc(Cl)c(OC(F)F)c2)N=C1c1ccc(Cl)c(Cl)c1 (single isomer, unassigned) [Example 11.2, N-[1-{N-[4-chloro-3-(difluoromethoxy)phenyl]-N′-cyanocarbamimidoyl}-3-(3,4-dichlorophenyl)-4,5-dihydro-1H-pyrazol-4-yl]-N-ethyl-2-hydroxyacetamide]
3 | 0.0192 | CCN(C(=O)CO)C1CN(/C(=N\C#N)Nc2cc(F)cc(OC(F)F)c2)N=C1c1ccc(Cl)c(Cl)c1 (single isomer, unassigned) [Example 24.2, N-[1-{N′-cyano-N-[3-(difluoromethoxy)-5-fluorophenyl]carbamimidoyl}-3-(3,4-dichlorophenyl)-4,5-dihydro-1H-pyrazol-4-yl]-N-ethyl-2-hydroxyacetamide]
4 | 0.488 | CCN(C(=O)[C@H](C)N)C1CN(/C(=N\C#N)Nc2cccc(OC(F)F)c2)N=C1c1ccc(Cl)c(C)c1 (single isomer, unassigned) [Example 34.2, N-[3-(4-chloro-3-methylphenyl)-1-{N′-cyano-N-[3-(difluoromethoxy)phenyl]carbamimidoyl}-4,5-dihydro-1H-pyrazol-4-yl]-N-ethyl-L-alaninamide]
5 | 0.0441 | CCN(C(=O)CO)C1CN(/C(=N\C#N)Nc2ccc(Cl)c(OC(F)F)c2)N=C1c1ccc(Cl)c(Cl)c1 (single isomer, unassigned) [Example 11.1, N-[1-{N-[4-chloro-3-(difluoromethoxy)phenyl]-N′-cyanocarbamimidoyl}-3-(3,4-dichlorophenyl)-4,5-dihydro-1H-pyrazol-4-yl]-N-ethyl-2-hydroxyacetamide]
6 | 15.4 | CCN(C(=O)[C@H](C)N)C1CN(/C(=N\C#N)Nc2cccc(OC(F)F)c2)N=C1c1ccc(Cl)c(C)c1 (single isomer, unassigned) [Example 34.1, N-[3-(4-chloro-3-methylphenyl)-1-{N′-cyano-N-[3-(difluoromethoxy)phenyl]carbamimidoyl}-4,5-dihydro-1H-pyrazol-4-yl]-N-ethyl-L-alaninamide]
7 | 2.51 | CCN(C(=O)CO)C1CN(/C(=N\C#N)Nc2cc(F)cc(OC(F)F)c2)N=C1c1ccc(Cl)c(Cl)c1 (single isomer, unassigned) [Example 24.1, N-[1-{N′-cyano-N-[3-(difluoromethoxy)-5-fluorophenyl]carbamimidoyl}-3-(3,4-dichlorophenyl)-4,5-dihydro-1H-pyrazol-4-yl]-N-ethyl-2-hydroxyacetamide]
8 | 0.0541 | CCN(C(=O)CO)C1CN(/C(=N\C#N)Nc2cccc(OC(F)(F)F)c2F)N=C1c1ccc(Cl)c(Cl)c1 (single isomer, unassigned) [Example 12.2, N-[1-{N′-cyano-N-[2-fluoro-3-(trifluoromethoxy)phenyl]carbamimidoyl}-3-(3,4-dichlorophenyl)-4,5-dihydro-1H-pyrazol-4-yl]-N-ethyl-2-hydroxyacetamide]
9 | 2.66 | CCN(C(=O)CO)C1CN(/C(=N\C#N)Nc2cccc(OC(F)(F)F)c2F)N=C1c1ccc(Cl)c(Cl)c1 (single isomer, unassigned) [Example 12.1, N-[1-{N′-cyano-N-[2-fluoro-3-(trifluoromethoxy)phenyl]carbamimidoyl}-3-(3,4-dichlorophenyl)-4,5-dihydro-1H-pyrazol-4-yl]-N-ethyl-2-hydroxyacetamide]

The remaining lines, values behind:

Row | SMILES | IC50 [µM]
10 | C[C@H](O)C(=O)NC1CN(/C(=N\C#N)Nc2cccc(OC(F)F)c2)N=C1c1ccc(Cl)c(Cl)c1 (mixture of isomers) [Example 1, (2S)—N-[1-{N′-cyano-N-[3-(difluoromethoxy)phenyl]carbamimidoyl}-3-(3,4-dichlorophenyl)-4,5-dihydro-1H-pyrazol-4-yl]-2-hydroxypropanamide] | 0.518
11 | CCN(C(=O)CO)C1CN(/C(=N\C#N)Nc2ccc(F)c(OC(F)F)c2)N=C1c1ccc(Cl)c(Cl)c1 (racemic) [Example 22, Rac-N-[1-{N′-cyano-N-[3-(difluoromethoxy)-4-fluorophenyl]carbamimidoyl}-3-(3,4-dichlorophenyl)-4,5-dihydro-1H-pyrazol-4-yl]-N-ethyl-2-hydroxyacetamide] | 0.0648
12 | CCN(C(=O)CO)C1CN(/C(=N\C#N)Nc2cc(C(F)(F)F)ccc2OCCN2CCCC2)N=C1c1ccc(Cl)c(Cl)c1 (racemic) [Example 30, Rac-N-[r-(N′-cyano-N-[2-[2-(pyrrolidin-1-yl)ethoxy]-5-(trifluormethyl)phenyl]carbamimidoyl)-3-(3,4-dichlorophenyl)-4,5-dihydro-1H-pyrazol-4-yl]-N-ethyl-2-hydroxyacetamide] | 0.0158
13 | CCN(C(=O)CO)C1CN(/C(=N\C#N)Nc2ccc(F)c(OC(F)(F)F)c2)N=C1c1ccc(Cl)c(Cl)c1 (racemic) [Example 14, Rac-N-[1-{N′-cyano-N-[4-fluoro-3-(trifluoromethoxy)phenyl]carbamimidoyl}-3-(3,4-dichlorophenyl)-4,5-dihydro-1H-pyrazol-4-yl]-N-ethyl-2-hydroxyacetamide] | 0.147
14 | CCN(C(=O)CN)C1CN(/C(=N\C#N)Nc2cccc(OCCN(C)C)c2)N=C1c1ccc(Cl)c(Cl)c1 (racemic) [Example 17, Rac-N-[1-(N′-cyano-N-{3-[2-(dimethylamino)ethoxy]phenyl}carbamimidoyl)-3-(3,4-dichlorophenyl)-4,5-dihydro-1H-pyrazol-4-yl]-N-ethylglycinamide] | 0.0595
15 | CCN(C(=O)CO)C1CN(/C(=N\C#N)Nc2cccc(OC(F)(F)F)c2)N=C1c1ccc(Cl)c(F)c1 (racemic) [Example 35, Rac-N-[3-(4-chloro-3-fluorophenyl)-1-{N′-cyano-N-[3-(trifluoromethoxy)phenyl]-carbamimidoyl}-4,5-dihydro-1H-pyrazol-4-yl]-N-ethyl-2-hydroxyacetamide] | 0.157
16 | CCN(C(=O)CO)C1CN(/C(=N\C#N)Nc2cccc(OC(F)F)c2F)N=C1c1ccc(Cl)c(Cl)c1 (racemic) [Example 23, Rac-N-[1-{N′-cyano-N-[3-(difluoromethoxy)-2-fluorophenyl]carbamimidoyl}-3-(3,4-dichlorophenyl)-4,5-dihydro-1H-pyrazol-4-yl]-N-ethyl-2-hydroxyacetamide] | 0.0674
17 | CCN(C(=O)[C@H](N)C(C)C)C1CN(/C(=N\C#N)Nc2cccc(OC(F)(F)F)c2F)N=C1c1ccc(Cl)c(Cl)c1 (stereo partly drawn) [Example 40, N-[1-{N′-Cyano-N-[2-fluoro-3-(trifluoromethoxy)phenyl]carbamimidoyl}-3-(3,4-dichlorophenyl)-4,5-dihydro-1H-pyrazol-4-yl]-N-ethyl-D-valinamide] | 0.418
18 | CCN(C(=O)CO)C1CN(/C(=N\C#N)Nc2cccc(OC(F)(F)F)c2F)N=C1c1ccc(Cl)c(Cl)c1 (racemic) [Example 12, Rac-N-[1-{N′-cyano-N-[2-fluoro-3-(trifluoromethoxy)phenyl]carbamimidoyl}-3-(3,4-dichlorophenyl)-4,5-dihydro-1H-pyrazol-4-yl]-N-ethyl-2-hydroxyacetamide] | 0.138
19 | CN(C(=O)CO)C1CN(/C(=N\C#N)Nc2cccc(OC(F)F)c2)N=C1c1ccc(Cl)c(Cl)c1 (racemic) [Example 2, Rac-N-[1-{N′-cyano-N-[3-(difluoromethoxy)phenyl]carbamimidoyl}-3-(3,4-dichlorophenyl)-4,5-dihydro-1H-pyrazol-4-yl]-2-hydroxy-N-methylacetamide] | 0.0833
20 | CCN(C(=O)CO)C1CN(/C(=N\C#N)Nc2cc(F)cc(OC(F)F)c2)N=C1c1ccc(Cl)c(Cl)c1 (racemic) [Example 24, Rac-N-[1-{N′-cyano-N-[3-(difluoromethoxy)-5-fluorophenyl]carbamimidoyl}-3-(3,4-dichlorophenyl)-4,5-dihydro-1H-pyrazol-4-yl]-N-ethyl-2-hydroxyacetamide] | 0.0631
21 | CCN(C(=O)CO)C1CN(/C(=N\C#N)Nc2cc(C(F)(F)F)ccc2OC(F)(F)F)N=C1c1ccc(Cl)c(Cl)c1 (racemic) [Example 28, Rac-N-[1-{N′-cyano-N-[2-(trifluoromethoxy)-5-(trifluoromethyl)phenyl]carbamimidoyl}-3-(3,4-dichlorophenyl)-4,5-dihydro-1H-pyrazol-4-yl]-N-ethyl-2-hydroxyacetamide] | 0.14
22 | CCN(C(=O)[C@H](N)C(C)C)C1CN(/C(=N\C#N)Nc2cccc(OC(F)F)c2)N=C1c1ccc(Cl)c(Cl)c1 (stereo partly drawn) [Example 41, N-[1-{N′-Cyano-N-[3-(difluoromethoxy)phenyl]carbamimidoyl}-3-(3,4-dichlorophenyl)-4,5-dihydro-1H-pyrazol-4-yl]-N-ethyl-D-valinamide] | 0.0735
23 | CCN(C(=O)[C@H](N)CC(C)C)C1CN(/C(=N\C#N)Nc2cccc(OC(F)(F)F)c2)N=C1c1ccc(Cl)c(Cl)c1 (stereo partly drawn) [Example 39, N-[1-{N′-cyano-N-[3-(trifluoromethoxy)phenyl]carbamimidoyl}-3-(3,4-dichlorophenyl)-4,5-dihydro-1H-pyrazol-4-yl]-N-ethyl-D-leucinamide] | 2.4
